Entries after “also recorded” stand apart in the source; their conditions may differ. Marks after values point to notes of the source that are not given here.
Experiments:
[1] = test system: poorly differentiated human pancreatic tumor (Panc-3); experiment: Electrochemotherapy (ECT) of Panc-3 tumors xenografted subcutaneously in nude mice; type: in vivo; conditions: for Overall outcome of the electrochemotherapy protocol: needle array electrodes
Description: The following examples illustrate the use of electrochemotherapy (ECT) of a poorly differentiated human pancreatic tumor (Panc-3) xenografted subcutaneously on the left flank of nude mice. The single treatment procedure involved injection of bleomycin (0.5 units in 0.15 ml saline) intratumorally, using fanning, as described herein followed by application of six square wave electrical pulses, ten minutes later, using proprietary needle array electrodes arranged along the circumference of a circle 1 cm in diameter. Needle array of variable diameters (e.g., 0.5 cm, 0.75 cm and 1.5 cm can also be used to accommodate tumors of various sizes. Stoppers of various heights can be inserted at the center of the array to make the penetration depth of the needles into the tumor variable. A built-in mechanism allowed switching of electrodes for maximum coverage of the tumor by the pulsed field. The electrical parameters were: 1300 V/cm and 6×99 μs pulses spaced at 1 sec interval.
The tumor cell line Panc-3, a poorly differentiated adenocarcinoma cell line of the pancreas, was supplied by AntiCancer, Inc., San Diego. For ECT experiments, tissue taken from the stock mice, where the tumor fine was maintained, was thawed and cut into very small pieces about 1 mm each, and 8-10 pieces were surgically xenografted in a subcutaneous sac made in left flank of nude mice, and then closed with 6.0 surgical suture. After the average tumor size reached about 5 mm, mice with palpable tumors were divided randomly, 10 mice for control group (D+E−; D=Drug, E=Electric field) and 10 mice for ECT treatment namely bleomycin injection followed by pulsing (D+E+) from a BTX Square Wave T820 Generator. The tumor dimensions were measured and the tumor volume calculated using the formula: […]
where a, b, and c are, respectively, the length, width and thickness of the tumor. 0.5 units Bleomycin (Sigma Chemicals) was dissolved in 0.15 ml of 0.9% NaCl and was injected in each mice intratumorally by fanning for both the control (D+E−) and the treated (D+E+) groups. Ten minutes after the injection, each mouse in the D+E+ group was pulsed from a BTX T820 square wave electroporator with a set of needle array electrodes as described in the present invention. Electrical parameters used were as follows: field strength 1300 V/cm, 6 pulses of 99 μs each, at 1 sec interval.
(§1) The mice were monitored every day for mortality and any signs of a diseased state were noted. The tumor dimensions were measured at regular intervals and tumor growth regression/progression monitored. Another set of nude mice with xenografts of non-small cell lung cancer line was also treated by the same procedure as for the Panc-3 tumors.
(§2) The Panc-3 and NSCLC models were utilized with the drug neocarcinostatin (NCS) following the same procedures as outlined above. […] It was believed that due to the low isoelectric point of NCS, electrostatic interaction prevented the drug from entering the tumor cell. Therefore, the experiment was repeated by pulsing first and injecting NCS post-pulse.

[2] = test system: non-small cell lung cancer cell line (NSCLC), 177; experiment: Electrochemotherapy (ECT) of non-small cell lung cancer xenografts in nude mice; type: in vivo; conditions: for Overall outcome of the electrochemotherapy protocol: needle array electrodes
Description: as §1, §2

[3] = P = partition coefficient between octanol and water; cited from earlier work
cancerous tumors = conditions: low dose injected, tumors then electroporated with square wave pulses; cited from earlier work
[4] = ECT, 10 mice treated, 28 days after treatment
[5] = ECT, 10 mice treated, 35 days after treatment
[6] = ECT, 10 mice treated, 57 days after treatment
[7] = ECT, 10 mice treated, 77 days after treatment

Substance: bleomycin
- Histological analysis of tumor samples ([1]; D+E+ group (ECT)): severe necrosis of the tumor region; also recorded: necrotic tumor cell ghosts
- Cases with partial regression (80% reduction in tumor volume) ([1]; ECT (D+E+)): 30%
- Necrosis and edema at the treatment site ([1]; ECT (D+E+)): severe necrosis and edema in nearly all the mice
- Mice with tumor regrowth ([1]; ECT (D+E+), 35 days after treatment, much slower growth rate than control): 20%
- Cases with complete regression with no palpable tumor ([1]; ECT (D+E+), 77 days after the single treatment): 60%
- Time after which essentially no detectable tumor ([1]; ECT (D+E+), FIG. 10): approximately 24 days
- CR (100%), Complete Regression, number of mice [1, 4]: 6
- NR (%), No Response, number of mice [1, 4]: 1
- PR (80%), Partial Regression, number of mice [1, 4]: 3
- CR (100%), Complete Regression, number of mice [1, 5]: 6
- NR (%), No Response, number of mice [1, 5]: 1
- Tumor regrowth, number of mice [1, 5]: 2
- CR (100%), Complete Regression, number of mice [1, 6]: 6
- NR (%), No Response, number of mice [1, 6]: 1
- CR (100%), Complete Regression, number of mice [1, 7]: 6
- NR (%), No Response, number of mice [1, 7]: 1
- Death, number of mice ([1]; ECT, 10 mice treated, 77 days after treatment, 1 died after retreatment, 1 after 64 days survival): 2*
- Effect of intratumoral injection with larger volume combined with fanning ([1]; compared to the conventional mode of injecting the drug prior to pulsing): very effective
- Change of tumor volume ([1]; control group D+E- (drug, no electrical field)): increased dramatically
- Tumor volume (mm^3) C1 ([1]; control mouse C1 (D+E-), 1 day after treatment): 206.979 mm^3
- Tumor volume (mm^3) C1 ([1]; control mouse C1 (D+E-), 8 days after treatment): 394.786 mm^3
- Tumor volume (mm^3) C1 ([1]; control mouse C1 (D+E-), 15 days after treatment): 557.349 mm^3
- Tumor volume (mm^3) C1 ([1]; control mouse C1 (D+E-), 18 days after treatment): 939.582 mm^3
- Tumor volume (mm^3) C1 ([1]; control mouse C1 (D+E-), 24 days after treatment): 1391.057 mm^3
- Tumor volume (mm^3) C1 ([1]; control mouse C1 (D+E-), 28 days after treatment): 1628.631 mm^3
- Tumor volume (mm^3) C1 ([1]; control mouse C1 (D+E-), 35 days after treatment): 2619.765 mm^3
- Tumor volume (mm^3) C1 ([1]; control mouse C1 (D+E-), 38 days after treatment): 2908.912 mm^3
- Tumor volume (mm^3) C1 ([1]; control mouse C1 (D+E-), 43 days after treatment): 3708.571 mm^3
- Tumor volume (mm^3) C1 ([1]; control mouse C1 (D+E-, bleomycin 0.5 units intratumoral, no pulsing), 0 days after treatment): 138.746 mm^3
- Tumor volume (mm^3) C2 ([1]; control mouse C2 (D+E-), 1 day after treatment): 179.82 mm^3
- Tumor volume (mm^3) C2 ([1]; control mouse C2 (D+E-), 8 days after treatment): 451.787 mm^3
- Tumor volume (mm^3) C2 ([1]; control mouse C2 (D+E-), 15 days after treatment): 798.919 mm^3
- Tumor volume (mm^3) C2 ([1]; control mouse C2 (D+E-), 18 days after treatment): 881.752 mm^3
- Tumor volume (mm^3) C2 ([1]; control mouse C2 (D+E-), 24 days after treatment): 1406.98 mm^3
- Tumor volume (mm^3) C2 ([1]; control mouse C2 (D+E-), 28 days after treatment): 1474.21 mm^3
- Tumor volume (mm^3) C2 ([1]; control mouse C2 (D+E-), 35 days after treatment): 2330.31 mm^3
- Tumor volume (mm^3) C2 ([1]; control mouse C2 (D+E-), 38 days after treatment): 2333.967 mm^3
- Tumor volume (mm^3) C2 ([1]; control mouse C2 (D+E-), 43 days after treatment): 5381.759 mm^3
- Tumor volume (mm^3) C2 ([1]; control mouse C2 (D+E-, bleomycin 0.5 units intratumoral, no pulsing), 0 days after treatment): 148.94 mm^3
- Overall outcome of the electrochemotherapy protocol [1]: effectively treated
- Mice with no response ([1]; treated by ECT (D+E+)): 10%
- Mice with nearly complete tumor regression ([1]; treated by ECT (D+E+), after 28 days): 90%
- Change of tumor volume ([1]; treated group D+E+, after a slight initial increase due to edema): substantial reduction in the tumor volume
- Tumor volume (mm^3) T1 ([1]; treated mouse T1 (D+E+), 1 day after treatment): 210.95 mm^3
- Tumor volume (mm^3) T1 ([1]; treated mouse T1 (D+E+), 8 days after treatment): 104.55 mm^3
- Tumor volume (mm^3) T1 ([1]; treated mouse T1 (D+E+), 15 days after treatment): 113.21 mm^3
- Tumor volume (mm^3) T1 ([1]; treated mouse T1 (D+E+), 18 days after treatment): 161.73 mm^3
- Tumor volume (mm^3) T1 ([1]; treated mouse T1 (D+E+), 24 days after treatment): 41.56 mm^3
- Tumor volume (mm^3) T1 ([1]; treated mouse T1 (D+E+), 28 days after treatment): 0 mm^3
- Tumor volume (mm^3) T1 ([1]; treated mouse T1 (D+E+), 35 days after treatment): 0 mm^3
- Tumor volume (mm^3) T1 ([1]; treated mouse T1 (D+E+), 38 days after treatment): 0 mm^3
- Tumor volume (mm^3) T1 ([1]; treated mouse T1 (D+E+), 43 days after treatment): 0 mm^3
- Tumor volume (mm^3) T1 ([1]; treated mouse T1 (D+E+, bleomycin 0.5 units intratumoral + 1300 V/cm 6x99 μs pulses), 0 days after treatment): 123.11 mm^3
- Tumor volume (mm^3) T2 ([1]; treated mouse T2 (D+E+), 1 day after treatment): 252.72 mm^3
- Tumor volume (mm^3) T2 ([1]; treated mouse T2 (D+E+), 8 days after treatment): 211.11 mm^3
- Tumor volume (mm^3) T2 ([1]; treated mouse T2 (D+E+), 15 days after treatment): 226.966 mm^3
- Tumor volume (mm^3) T2 ([1]; treated mouse T2 (D+E+), 18 days after treatment): 246.91 mm^3
- Tumor volume (mm^3) T2 ([1]; treated mouse T2 (D+E+), 24 days after treatment): 47.2228 mm^3
- Tumor volume (mm^3) T2 ([1]; treated mouse T2 (D+E+), 28 days after treatment): 0 mm^3
- Tumor volume (mm^3) T2 ([1]; treated mouse T2 (D+E+), 35 days after treatment): 0 mm^3
- Tumor volume (mm^3) T2 ([1]; treated mouse T2 (D+E+), 38 days after treatment): 0 mm^3
- Tumor volume (mm^3) T2 ([1]; treated mouse T2 (D+E+), 43 days after treatment): 0 mm^3
- Tumor volume (mm^3) T2 ([1]; treated mouse T2 (D+E+, bleomycin 0.5 units intratumoral + 1300 V/cm 6x99 μs pulses), 0 days after treatment): 178.37 mm^3
- Result of ECT treatment on tumor volume ([2]; ECT as for Panc-3, FIGS. 12a, 12b): very encouraging results
- Overall outcome of the electrochemotherapy protocol [2]: effectively treated
- Tumor after retreatment of a recurred tumor ([2]; one mouse retreated at day 27, 7 days after retreatment (FIG. 13)): no evidence of tumor
- log P [3]: very negative
- Tumor response (cancerous tumors): reduction or complete remission of the tumors

Substance: neocarcinostatin [NCS]
- Post-pulse compared with pre-pulse administration ([1]; FIGS. 14a and b versus 14c and d): more effective than pre-pulse administration
- Overall outcome of the electrochemotherapy protocol [1]: effectively treated
- Final versus initial tumor volume ([1]; post-pulse dosing, day 13, 7 mice, mouse ID 1, 2, 4 and 7, appeared to be due to edema (FIG. 14c)): an increase in tumor volume was observed
- Change of tumor volume ([1]; post-pulse dosing, day 23, separate group of 5 mice (FIG. 14d)): all mice showed a marked reduction in tumor volume
- Reduction of tumor size ([1]; pre-pulse dosing (FIG. 14a)): not effective in reducing tumor size at all
- Overall outcome of the electrochemotherapy protocol [2]: effectively treated
- Reduction of tumor size ([2]; pre-pulse dosing (FIG. 14b)): not effective in reducing tumor size at all

— US6418341B1, “Needle electrode assembly for electroporation mediated delivery of genes and drugs” (Genetronics, Inc., priority 1993, dated 2002)
